Data as given in patent publication US20110097338A1, “Use of Substances for Sensitization of Tumor Cells to Radiation and/or Chemotherapy” (TECHNISCHE UNIVERSITAET DRESDEN, priority 2008, published 2011).
d = 2'-deoxy (DNA); r = 2'-OH (RNA)

How the values were obtained:
Format in all cases: cell-based, human
DLD-1 = experiment: Clonogenic survival after radiation (colony forming assay), siRNA transfection; conditions: siRNA 20 nmol/l, irradiated 48 h later with 0-6 Gy
Method: (§1) Human colorectal tumor cell lines of the type HCT-116 (ATCC No. CCL-247) and of the type DLD-1 (ATCC No. CCL-221) were transfected with PINCH-1-siRNA of the SEQ ID No. 5. For this purpose, 3×10^5 tumor cells on 6-well plates (BD, Heidelberg) in Dulbecco's Modified Eagle (DMEM; Gibco, Karlsruhe) with Glutamax-I (L-alanyl-L-glutamine), 10% serum (FCS; Biochrom, Berlin) and 1% of non-essential amino acids (Gibco, Karlsruhe) were seeded and cultured at 37° C. and 7% CO2. After 24 h the cells were washed once with Opti-MEM I (Invitrogen, Karlsruhe) and transfected with oligo fectamine (0.2%) and 20 nmol/l PINCH-1-siRNA for 8 h without serum in Opti-MEM I. Afterwards 10% serum was added and the cells incubated for another 16 h at 37° C. and 7% CO2. After a total of 24 h after transfection the cells were washed with phosphate-buffered saline solution (PBS; PAA, Cölbe) and removed with trypsin/EDTA solution. […] Of this portion, protein lysates were produced for examining knock-downs in the Western Blot, the proteins were separated by means of SDS PAGE, transferred onto a nitrocellulose membrane and detected with a mouse-anti-PINCH-1-antibody (clone 49; BD Heidelberg) as well as a peroxidase-coupled goat-anti-mouse-secondary antibody and the ECL system (GE Healthcare, Munich).

HCT-116 = experiment: as above; conditions: siRNA 20 nmol/l, irradiated 48 h later with 0-6 Gy
Method: as §1

PINCH-1 protein = experiment: Western Blot of PINCH-1 knock-down after siRNA transfection; conditions: HCT-116 and DLD-1 cells; 20 nmol/l siRNA with oligo fectamine; lysates 48 h after transfection
Method: as §1

## GCUAUAUCUCAAAGCAGUUtt (GCUAUAUCUCAAAGCAGUUTT; siRNA; sugars from the 5' end r19 d2, backbone not given here) [PINCH-1-siRNA of the SEQ ID No. 5]
DLD-1
  survival rate after radiation vs. control-siRNA (FIG. 4): lowered significantly
HCT-116
  survival rate after radiation vs. control-siRNA (FIG. 4): lowered significantly
PINCH-1 protein
  formation of PINCH-1 protein / PINCH-1 expression (Western Blot, FIG. 3): prevented
